Source: patent US10183944B2 (Asana Biosciences, LLC, priority 2011, dated 2019)
Structures can show the parent of a compound that is named as a salt.

How the values were obtained:
[1] = molecular target: Syk (356-635 amino acids) catalytic domain (Homo sapiens (Human), UniProt P43405); assay: Inhibition of enzymatic Syk kinase activity (radiometric); type: biochemical; conditions: read-out: IC50 Syk
In short: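 Radiometric filter-binding format: 32P transfer from γ-32P-ATP onto pG4T, scintillation-counted after acid washes of P81 paper. Syk kinase domain (356-635), 0.035–7.5 ng per reaction, was exposed to compound for 30 minutes at room temperature before a 10-minute, 30° C. reaction with ATP (100 μM stock). Inhibition derived from counts with versus without compound.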

JAK2 = JAK2 (Homo sapiens (Human), UniProt O60674); assay: Inhibition of enzymatic JAK2 kinase activity (TR-FRET); type: biochemical; conditions: read-out: IC50 JAK
Sequence of JAK2 (O60674 808-1132): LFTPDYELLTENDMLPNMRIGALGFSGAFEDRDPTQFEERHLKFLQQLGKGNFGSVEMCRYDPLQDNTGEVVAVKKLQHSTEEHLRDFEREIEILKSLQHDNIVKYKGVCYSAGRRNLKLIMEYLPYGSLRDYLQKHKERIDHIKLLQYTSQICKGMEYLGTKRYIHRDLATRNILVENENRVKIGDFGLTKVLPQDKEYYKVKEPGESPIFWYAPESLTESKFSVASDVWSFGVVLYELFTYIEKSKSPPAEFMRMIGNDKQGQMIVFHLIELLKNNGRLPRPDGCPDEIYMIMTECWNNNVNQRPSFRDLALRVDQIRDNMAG
Excerpt: The objective of this assay was to screen compounds in a Time-resolved fluorescence resonance energy transfer (TR-FRET) Enzymatic assay method for their potential to inhibit JAK2 (Janus kinase) activity.
TR-FRET assays are homogeneous proximity assays where Eu-labeled antiphosphotyrosine antibody binds to the phosphorylated substrates labeled with Ulight fluorescence acceptor. Eu can transfer energy to Ulight accepter in the complex and the interaction of two dye-labeled binding partners is detected by the energy transfer between a donor and an acceptor dye, and the subsequent light emission by the acceptor dye. The intensity of the light emission is proportional to the level of Ulight peptide phosphorylation.
Two μL of 10% DMSO in blank, substrate control and positive control wells and 2 μL of test compound in test wells was added. Thirteen μL of assay buffer in blank and substrate control wells and 13 μL of Enzyme buffer mix in positive and test wells was added. The reaction mixture was incubated for 30 minutes at RT on a plate shaker. Ultra Light-pGT substrate (5 μL) [poly Glu-Tyr (4:1) labeled with U Light TM dye, a tyrosine kinase substrate] and ATP mix was added to all wells. The reaction plate was incubated for 60 minutes at RT on a plate shaker. The reaction was stopped by adding 40 mM EDTA (10 μL) in buffer. Ten μL of antibody was added to all the wells. The plate was read in a Wallac® 1420 Multilabel Counter Victor 3 instrument (Ex: 340 nm Em: 615 & 665 nm) The following calculations were made:
F@ 665 Value-Buffer blank
F@ 615 Value-Buffer blank
Ratio of F@665/F@615-Substrate Blank
% Activity=(Test Sample/Positive control)*100%
Inhibition=(100−% Activity)

Compound | IC50 [1] [nM] | IC50 (JAK2) [nM]
N#CCC1CCN(c2nc(Nc3ccc(OC(F)F)cc3)c3c(=O)[nH]ncc3n2)CC1 [Example 338, 2-(1-(4-((4-(difluoromethoxy)phenyl)amino)-5-oxo-5,6-dihydropyrimido[4,5-d]pyridazin-2-yl)piperidin-4-yl) acetonitrile] | < 100 | > 100
CC(C)(O)C(=O)N1CCN(Cc2ccc(Nc3nc(-c4ccccc4)nc4cn[nH]c(=O)c34)cc2)CC1 [Example 83, 4-((4-((4-(2-hydroxy-2-methylpropanoyl)piperazin-1-yl)methyl)phenyl)amino)-2-phenylpyrimido[4,5-d]pyridazin-5(6H)-one] | < 50 | < 50
O=c1[nH]ncc2nc(-c3ccc(Cl)cc3)nc(Nc3ccc(CN4CCNCC4)cc3)c12 [Example 40, 2-(4-chlorophenyl)-4-(4-(piperazin-1-ylmethyl)phenylamino)pyrimido[4,5-d]pyridazin-5(6H)-one hydrochloride] | < 50 | > 100
N#CCC1CCN(c2nc(Nc3ccc(OC4CCN(CC(=O)O)CC4)cc3)c3c(=O)[nH]ncc3n2)CC1 [Example 262, 2-(4-(4-((2-(4-(cyanomethyl)piperidin-1-yl)-5-oxo-5,6-dihydropyrimido[4,5-d]pyridazin-4-yl)amino)phenoxy)piperidin-1-yl)acetic acid] | < 50 | < 10
N#CCC(=O)N1CCN(c2ccc(Nc3nc(N4CCCCCC4)nc4cn[nH]c(=O)c34)cn2)CC1 [Example 234, 3-(4-(5-((2-(azepan-1-yl)-5-oxo-5,6-dihydropyrimido[4,5-d]pyridazin-4-yl)amino)pyridin-2-yl)piperazin-1-yl)-3-oxopropanenitrile] | < 50 | < 10
N#CCC1CCN(c2ccc(Nc3nc(N4CCC(CC#N)CC4)nc4cn[nH]c(=O)c34)cn2)CC1 [Example 114, 2-(1-(5-((2-(4-(cyanomethyl)piperidin-1-yl)-5-oxo-5,6-dihydropyrimido[4,5-d]pyridazin-4-yl)amino)pyridin-2-yl)piperidin-4-yl)acetonitrile] | < 10 | < 50
COCCN1CCN(c2ccc(Nc3nc(N4CCCCCC4)nc4cn[nH]c(=O)c34)cc2)CC1 [Example 255, 2-(azepan-1-yl)-4-((4-(4-(2-methoxyethyl)piperazin-1-yl)phenyl)amino) pyrimido[4,5-d]pyridazin-5(6H)-one] | < 50 | < 10

Second part, the molecule after the results:

IC50 [1] [nM] | IC50 (JAK2) [nM] | Compound
> 100 | < 50 | N#CC1CCN(c2nc(Nc3ccc(CN4CCNCC4)cc3)c3c(=O)[nH]ncc3n2)CC1 [Example 56, 1-(5-oxo-4-((4-(piperazin-1-ylmethyl)phenyl)amino)-5,6-dihydropyrimido[4,5-d]pyridazin-2-yl)piperidine-4-carbonitrile hydrochloride]
< 10 | < 10 | N#CCC1CCN(c2nc(Nc3ccc(N4CCN(CC#N)CC4)cc3)c3c(=O)[nH]ncc3n2)CC1 [Example 207, 2-(1-(4-((4-(4-(cyanomethyl)piperazin-1-yl)phenyl)amino)-5-oxo-5,6-dihydropyrimido[4,5-d]pyridazin-2-yl)piperidin-4-yl)acetonitrile]
< 50 | > 100 | O=c1[nH]ncc2nc(N3CCCNCC3)nc(Nc3ccc(CN4CCNCC4)cc3)c12 [Example 59, 2-(1,4-diazepan-1-yl)-4-((4-(piperazin-1-ylmethyl)phenyl)amino)pyrimido[4,5-d]pyridazin-5(6H)-one dihydrochloride]
< 50 | < 50 | CN1CCN(c2ccc(Nc3nc(N4CCCCCC4)nc4cn[nH]c(=O)c34)cn2)CC1 [Example 242, 2-(azepan-1-yl)-4-((6-(4-methylpiperazin-1-yl)pyridin-3-yl)amino)pyrimido[4,5-d]pyridazin-5(6H)-one]
